Reference: patent US10570150B2, “6,7-trans cephalosporin-based probes for detecting bacteria expressing a metallo-beta-lactamase” (priority 2014, dated 2020)
Marks after values point to notes of the source that are not given here.

Legend:
[1] = target: T1, KPC-3 (Klebsiella pneumoniae, UniProt Q9F663, H272Y); conditions: from Lineweaver-Burk plots
[2] = target: T1, KPC-3; assay type: biochemical; conditions: probe 10 μM, 2 h; for fluorescence enhancement: KPC-3 1 to 200 fmols, 25 μL 1×PBS pH 7.4, room temperature; for amount of enzyme giving detectable fluorescence: KPC-3
[3] = target: T2, NDM-1 (Klebsiella pneumoniae, UniProt C7C422); assay type: biochemical, Escherichia coli; conditions: probe 10 μM, 2 h; for fluorescence enhancement: NDM-1 1 to 200 fmols, 25 μL 1×PBS pH 7.4, room temperature; for amount of enzyme giving detectable fluorescence: NDM-1
[4] = system: VIM-27; assay: Fluorescence of probes after incubation with recombinant VIM-27; assay type: biochemical, Klebsiella pneumoniae; conditions: probe 10 μM, 2 h; for fluorescence enhancement: VIM-27 1 to 200 fmols, 25 μL 1×PBS pH 7.4, room temperature
Experimental: (§1) The fluorescence of the probes was measured before and after enzyme treatment using enzyme concentrations in the range of about 1 to about 200 fmols. […] CDC-1, a previously reported non-specific probe for β-lactamases employed as a positive control, as described by Xie et al., (2012) J. Nat.

[5] = Spontaneous hydrolysis of probe in PBS buffer; assay type: physicochemical; conditions: [S]0=20 μM
Text: FIGS. 14A-14G illustrate the spontaneous hydrolysis in buffer of a probe according to the disclosure. FIG. 14A is a schema illustrating the spontaneous hydrolysis of a probe of the disclosure in PBS buffer to release umbelliferone and thereby generate a fluorescent signal. […] Initial concentration of probe, [P]: […] Error bars indicate the standard deviations of three replicate experiments.

[6] = target: T3, IMP-1 (Serratia marcescens, UniProt P52699); assay type: biochemical, Escherichia coli; conditions: probe 10 μM, 2 h; for fluorescence enhancement: IMP-1 1 to 200 fmols, 25 μL 1×PBS pH 7.4, room temperature
[7] = system: VIM-27; assay: Kinetic parameters of probes with recombinant VIM-27 (Lineweaver-Burk plots); conditions: from Lineweaver-Burk plots
[8] = target: TEM-1 Bla (Escherichia coli, UniProt P62593); assay type: biochemical; conditions: TEM-1 Bla 1 to 200 fmols; probe 10 μM, 25 μL 1×PBS pH 7.4, room temperature, 2 h
[9] = system: E. coli with IMP-1; conditions: IMP-1-expressing bacteria; 2 h incubation
[10] = target: BlaC (Mycobacterium tuberculosis, UniProt P9WKD3); assay: Fluorescence of probes after incubation with recombinant BlaC; assay type: biochemical; conditions: BlaC 1 to 200 fmols; probe 10 μM, 25 μL 1×PBS pH 7.4, room temperature, 2 h
Experimental: as §1

[11] = system: non-carbapenemase lactamases; assay: Hydrolysis of probes by non-carbapenemase lactamases
[12] = target: T3, IMP-1; conditions: from Lineweaver-Burk plots
[13] = target: T2, NDM-1; conditions: from Lineweaver-Burk plots
[14] = system: [H][C@]1(OS(=O)(=O)c2ccc(C)cc2)C(=O)N2C(C(=O)O)=C(COc3ccc4ccc(=O)oc4c3)CS[C@@]21[H]; assay: purified protein, by the assay type; conditions: from Lineweaver-Burk plots
[15] = system: [H][C@]1(OCc2ccccc2)C(=O)N2C(C(=O)O)=C(COc3ccc4ccc(=O)oc4c3)CS[C@@]21[H]; assay: purified protein, by the assay type; conditions: from Lineweaver-Burk plots
[16] = system: [H][C@]1(OC(C)(C)C)C(=O)N2C(C(=O)O)=C(COc3ccc4ccc(=O)oc4c3)CS[C@@]21[H]; assay: purified protein, by the assay type; conditions: from Lineweaver-Burk plots
[17] = system: [H][C@]1(OCC)C(=O)N2C(C(=O)O)=C(COc3ccc4ccc(=O)oc4c3)CS[C@@]21[H]; assay: purified protein, by the assay type; conditions: from Lineweaver-Burk plots
[18] = system: [H][C@]1(OC(C)C)C(=O)N2C(C(=O)O)=C(COc3ccc4ccc(=O)oc4c3)CS[C@@]21[H]; assay: purified protein, by the assay type; conditions: from Lineweaver-Burk plots
[19] = system: [H][C@]1(OC)C(=O)N2C(C(=O)O)=C(COc3ccc4ccc(=O)oc4c3)CS[C@@]21[H]; assay: purified protein, by the assay type; conditions: from Lineweaver-Burk plots

CO[C@H]1C(=O)N2C(C(=O)O)=C(COc3ccc4ccc(=O)oc4c3)CS[C@H]12 [(s)-CC-1, (6R,7S)-7-methoxy-8-oxo-3-(((2-oxo-2H-chromen-7-yl)oxy)methyl)-5-thia-1-azabicyclo[4.2.0.]oct-2-ene-2-carboxylic Acid]
Km [1]: 67.7 ± 4.9 µM | kcat [1]: 1.5 ± 0.05 s⁻¹ | fluorescence enhancement [2]: high fluorescence signals | fluorescence enhancement [3]: high fluorescence signals | fluorescence enhancement [4]: high fluorescence signals | Spontaneous hydrolysis rate [5]: 7e-08 s⁻¹ | fluorescence enhancement [6]: high fluorescence signals | Km [7]: 29.2 ± 7 µM | kcat [7]: 1.1 ± 0.1 s⁻¹ | fluorescence enhancement [8]: almost no fluorescence enhancement | number of bacteria detected / detection limit [9]: ≤ 10^4 c.f.u. | fluorescence enhancement [10]: almost no fluorescence enhancement

CCO[C@H]1C(=O)N2C(C(=O)O)=C(COc3ccc4ccc(=O)oc4c3)CS[C@H]12 [(s)-CC-2, (6R,7S)-7-ethoxy-8-oxo-3-(((2-oxo-2H-chromen-7-yl)oxy)methyl)-5-thia-1-azabicyclo[4.2.0]oct-2-ene-2-carboxylic Acid]
Km [1]: 39.1 ± 1.3 µM | kcat [1]: 0.3 ± 0.05 s⁻¹ | fluorescence enhancement [2]: high fluorescence signals | fluorescence enhancement [3]: high fluorescence signals | fluorescence enhancement [4]: high fluorescence signals | Spontaneous hydrolysis rate [5]: 5.9e-07 s⁻¹ | fluorescence enhancement [6]: high fluorescence signals | Km [7]: 23 µM | kcat [7]: 0.71 ± 0.0 s⁻¹ | fluorescence enhancement [8]: almost no fluorescence enhancement | fluorescence enhancement [10]: almost no fluorescence enhancement

CC(C)O[C@H]1C(=O)N2C(C(=O)O)=C(COc3ccc4ccc(=O)oc4c3)CS[C@H]12 [(s)-CC-3, (6R,7S)-7-isopropoxy-8-oxo-3-(((2-oxo-2H-chromen-7-yl)oxy)methyl)-5-thia-1-azabicyclo[4.2.0]oct-2-ene-2-carboxylic Acid]
Km [1]: 250 ± 235 µM | kcat [1]: 0.2 ± 0.17 s⁻¹ | amount of enzyme giving detectable fluorescence [2]: 200 fmol | fluorescence enhancement [3]: fluorescence enhancement | fluorescence enhancement [4]: fluorescence enhancement | Spontaneous hydrolysis rate [5]: 4.8e-07 s⁻¹ | fluorescence enhancement [6]: fluorescence enhancement | Km [7]: 61.3 ± 8.8 µM | kcat [7]: 0.5 ± 0.04 s⁻¹

CC(C)(C)O[C@H]1C(=O)N2C(C(=O)O)=C(COc3ccc4ccc(=O)oc4c3)CS[C@H]12 [(s)-CC-4, (6R,7S)-7-(tert-butoxy)-8-oxo-3-(((2-oxo-2H-chromen-7-yl)oxy)methyl)-5-thia-1-azabicyclo[4.2.0]oct-2-ene-2-carboxylic Acid]
Km [1]: 121 ± 85 µM | kcat [1]: 0.2 ± 0.1 s⁻¹ | amount of enzyme giving detectable fluorescence [3]: about 200 fmol | Spontaneous hydrolysis rate [5]: 5.4e-07 s⁻¹ | fluorescence enhancement [6]: high specificity for IMP-1 | Km [7]: 91.6 ± 10.1 µM | kcat [7]: 0.2 ± 0.01 s⁻¹ | hydrolysis by non-carbapenemase lactamases [11]: No hydrolysis | number of bacteria detected / detection limit [9]: about 1×10^5 c.f.u.

O=C(O)C1=C(COc2ccc3ccc(=O)oc3c2)CS[C@@H]2[C@@H](OCc3ccccc3)C(=O)N12 [(s)-CC-5, (6R,7S)-7-(benzyloxy)-8-oxo-3-(((2-oxo-2H-chromen-7-yl)oxy)methyl)-5-thia-1-azabicyclo[4.2.0]oct-2-ene-2-carboxylic Acid]
Km [1]: 5.2 ± 0.5 µM | kcat [1]: 1.1 ± 0.01 s⁻¹ | fluorescence enhancement [2]: high fluorescence signals | fluorescence enhancement [3]: high fluorescence signals | fluorescence enhancement [4]: high fluorescence signals | Spontaneous hydrolysis rate [5]: 2.7e-07 s⁻¹ | fluorescence enhancement [6]: high fluorescence signals | Km [7]: 145 ± 100 µM | kcat [7]: 3.4 ± 1.5 s⁻¹ | fluorescence enhancement [8]: almost no fluorescence enhancement | hydrolysis by non-carbapenemase lactamases [11]: no hydrolysis | fluorescence enhancement [10]: almost no fluorescence enhancement

Cc1ccc(S(=O)(=O)O[C@H]2C(=O)N3C(C(=O)O)=C(COc4ccc5ccc(=O)oc5c4)CS[C@H]23)cc1 [(s)-CC-6, (6R,7S)-8-oxo-3-(((2-oxo-2H-chromen-7-yl)oxy)methyl)-7-(tosyloxy)-5-thia-1-azabicyclo[4.2.0]oct-2-ene-2-carboxylic Acid]
Km [1]: 18.7 ± 7.8 µM | kcat [1]: 0.3 ± 0.05 s⁻¹ | amount of enzyme giving detectable fluorescence [2]: 200 fmol | fluorescence enhancement [3]: fluorescence enhancement | amount of enzyme giving detectable fluorescence [3]: ≤ 1.0 fmol | fluorescence enhancement [4]: fluorescence enhancement | amount of enzyme giving detectable fluorescence ([4]; VIM-27): ≤ 1.0 fmol | Spontaneous hydrolysis rate [5]: 2.6e-07 s⁻¹ | fluorescence enhancement [6]: fluorescence enhancement | amount of enzyme giving detectable fluorescence ([6]; IMP-1): ≤ 1.0 fmol | Km [7]: 14.1 ± 1.2 µM | kcat [7]: 3.9 ± 0.1 s⁻¹

O=C(Cc1ccccc1)N[C@@H]1C(=O)N2C(C(=O)O)=C(COc3ccc4ccc(=O)oc4c3)CS[C@H]12 [CDC-1, reference compound]
Km [1]: 21 ± 1.34 µM | kcat [1]: 35.4 ± 0.04 s⁻¹ | fluorescence enhancement [2]: positive fluorescence enhancement | Km [12]: 4 ± 0.1 µM | kcat [12]: 7.9 ± 0.1 s⁻¹ | fluorescence enhancement [3]: positive fluorescence enhancement | fluorescence enhancement [4]: positive fluorescence enhancement | Spontaneous hydrolysis rate [5]: 2.4^b ×10^−7s^−1 | fluorescence enhancement [6]: positive fluorescence enhancement | Km [7]: 3.8 ± 2.7 µM | kcat [7]: 2.3 ± 0.3 s⁻¹ | fluorescence enhancement [8]: positive fluorescence enhancement | fluorescence enhancement [10]: positive fluorescence enhancement | Km [13]: 5.04 ± 3.2 µM | kcat [13]: 4.6 ± 0.3 s⁻¹

IMP-1 (Serratia marcescens)
Km ([14]; other: IMP-1): 3.4 ± 0.4 µM | kcat ([14]; other: IMP-1): 2.2 ± 0.02 s⁻¹ | kcat/Km ([14]; other: IMP-1): 6.6 × 10^5 s^−1M^−1 | Km ([15]; other: IMP-1): 3.6 ± 0.1 µM | kcat ([15]; other: IMP-1): 4.2 ± 0.03 s⁻¹ | kcat/Km ([15]; other: IMP-1): 1.2 × 10^6 s^−1M^−1 | Km ([16]; other: IMP-1): 9.4 ± 1.3 µM | kcat ([16]; other: IMP-1): 2.1 ± 0.01 s⁻¹ | kcat/Km ([16]; other: IMP-1): 2.2 × 10^5 s^−1M^−1 | Km ([17]; other: IMP-1): 12.9 ± 1.0 µM | kcat ([17]; other: IMP-1): 16.6 ± 0.1 s⁻¹ | kcat/Km ([17]; other: IMP-1): 1.3 × 10^6 s^−1M^−1 | Km ([18]; other: IMP-1): 3.2 ± 0.07 µM | kcat ([18]; other: IMP-1): 8.0 ± 0.04 s⁻¹ | kcat/Km ([18]; other: IMP-1): 2.5 × 10^6 s^−1M^−1 | Km ([19]; other: IMP-1): 7.8 ± 0.2 µM | kcat ([19]; other: IMP-1): 12.2 ± 0.1 s⁻¹ | kcat/Km ([19]; other: IMP-1): 1.6 × 10^6 s^−1M^−1

NDM-1 (Klebsiella pneumoniae)
Km ([14]; other: NDM-1): 4.7 ± 0.3 µM | kcat ([14]; other: NDM-1): 1.9 ± 0.06 s⁻¹ | kcat/Km ([14]; other: NDM-1): 4.0 × 10^5 s^−1M^−1 | Km ([15]; other: NDM-1): 26.7 ± 0.2 µM | kcat ([15]; other: NDM-1): 0.3 ± 0.0 s⁻¹ | kcat/Km ([15]; other: NDM-1): 1.0 × 10^4 s^−1M^−1 | Km ([16]; other: NDM-1): 58.6 ± 16.0 µM | kcat ([16]; other: NDM-1): 0.3 ± 0.04 s⁻¹ | kcat/Km ([16]; other: NDM-1): 5.1 × 10^3 s^−1M^−1 | Km ([17]; other: NDM-1): 14.9 ± 2.7 µM | kcat ([17]; other: NDM-1): 0.3 ± 0.01 s⁻¹ | kcat/Km ([17]; other: NDM-1): 1.7 × 10^4 s^−1M^−1 | Km ([18]; other: NDM-1): 6.0 ± 3.5 µM | kcat ([18]; other: NDM-1): 0.1 ± 0.01 s⁻¹ | kcat/Km ([18]; other: NDM-1): 2.0 × 10^4 s^−1M^−1 | Km ([19]; other: NDM-1): 12.0 ± 0.7 µM | kcat ([19]; other: NDM-1): 0.2 ± 0.02 s⁻¹ | kcat/Km ([19]; other: NDM-1): 2.0 × 10^4 s^−1M^−1
